The supplement of paper PMC10307832

What was measured:
Experiment in all cases: relative viability (nuclei count vs DMSO), 5 days (fraction); higher = more cells survive
Idelalisib + Linsitinib = compound: CC[C@H](Nc1ncnc2[nH]cnc12)c1nc2cccc(F)c2c(=O)n1-c1ccccc1 [Idelalisib] + C[C@]1(O)C[C@@H](c2nc(-c3ccc4ccc(-c5ccccc5)nc4c3)c3c(N)nccn32)C1 [Linsitinib] (partner 1 µM)
In short: (§1)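 Relative viability equals treated-well nuclei counts divided by vehicle-well nuclei counts. Counts came from 4× images of lung cancer cell lines grown in 1536-well plates for 5 days after pin-tool dosing on the day after seeding. Dosing used one drug alone or a fixed anchor-drug dose plus five library-drug doses (not always all listed) in √10 steps, and values are medians of duplicate plates.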

Idelalisib + Pictilisib = compound: CC[C@H](Nc1ncnc2[nH]cnc12)c1nc2cccc(F)c2c(=O)n1-c1ccccc1 [Idelalisib] + CS(=O)(=O)N1CCN(Cc2cc3nc(-c4cccc5[nH]ncc45)nc(N4CCOCC4)c3s2)CC1 [Pictilisib] (partner 1 µM)
In short: as §1

Idelalisib + Bortezomib = compound: CC[C@H](Nc1ncnc2[nH]cnc12)c1nc2cccc(F)c2c(=O)n1-c1ccccc1 [Idelalisib] + CC(C)C[C@H](NC(=O)[C@H](Cc1ccccc1)NC(=O)c1cnccn1)B(O)O [Bortezomib] (partner 0.002 µM)
In short: as §1

Pemetrexed + AZD7762 = compound: Nc1nc2[nH]cc(CCc3ccc(C(=O)N[C@@H](CCC(=O)O)C(=O)O)cc3)c2c(=O)[nH]1 [Pemetrexed] + NC(=O)Nc1cc(-c2cccc(F)c2)sc1C(=O)N[C@H]1CCCNC1 [AZD7762] (partner 0.2 µM)
In short: as §1

Cell Line | relative viability (Idelalisib + Linsitinib; first compound 0.04 µM) | relative viability (Idelalisib + Linsitinib; first compound 0.1265 µM) | relative viability (Idelalisib + Linsitinib; first compound 0.4 µM) | relative viability (Idelalisib + Linsitinib; first compound 1.265 µM) | relative viability (Idelalisib + Linsitinib; first compound 4 µM) | relative viability (Idelalisib + Pictilisib; first compound 0.04 µM) | relative viability (Idelalisib + Pictilisib; first compound 0.1265 µM) | relative viability (Idelalisib + Pictilisib; first compound 0.4 µM) | relative viability (Idelalisib + Pictilisib; first compound 1.265 µM) | relative viability (Idelalisib + Pictilisib; first compound 4 µM) | relative viability (Idelalisib + Bortezomib; first compound 0.04 µM) | relative viability (Idelalisib + Bortezomib; first compound 0.1265 µM) | relative viability (Idelalisib + Bortezomib; first compound 0.4 µM) | relative viability (Idelalisib + Bortezomib; first compound 1.265 µM) | relative viability (Idelalisib + Bortezomib; first compound 4 µM) | relative viability (Pemetrexed + AZD7762; first compound 0.002 µM) | relative viability (Pemetrexed + AZD7762; first compound 0.006325 µM) | relative viability (Pemetrexed + AZD7762; first compound 0.02 µM) | relative viability (Pemetrexed + AZD7762; first compound 0.06325 µM) | relative viability (Pemetrexed + AZD7762; first compound 0.2 µM)
NCI-H661 | 0.588 | 0.551 | 0.373 | 0.389 | 0.458 | 0.426 | 0.37 | 0.446 | 0.468 | 0.456 | 0.679 | 0.658 | 0.496 | 0.661 | 0.628 |  |  |  |  | 
NCI-H1944 | 1.19 | 1.06 | 1.06 | 1.14 | 0.808 | 0.374 | 0.357 | 0.308 | 0.376 | 0.33 |  |  |  |  |  | 0.48 | 0.432 | 0.582 | 0.506 | 0.531
NCI-H1648 |  |  |  |  |  |  |  |  |  |  |  |  |  |  |  | 0.671 | 0.703 | 0.831 | 0.686 | 0.623
NCI-H522 |  |  |  |  |  |  |  |  |  |  |  |  |  |  |  | 0.999 | 0.806 | 1.05 | 0.91 | 0.805
EBC-1 | 0.762 | 1.03 | 0.907 | 0.84 | 0.637 | 0.399 | 0.42 | 0.343 | 0.368 | 0.209 | 0.646 | 0.603 | 0.587 | 0.505 | 0.444 |  |  |  |  | 
ChaGo-K-1 |  |  |  |  |  | 0.788 | 0.608 | 0.797 | 0.796 | 0.791 | 1.09 | 0.945 | 1.01 | 1.04 | 1.17 | 0.902 | 0.803 | 0.834 | 0.27 | 0.238
NCI-H1299 | 1.03 | 1.07 | 0.978 | 0.959 | 0.928 | 0.764 | 0.758 | 0.833 | 0.973 | 0.606 | 1.03 | 1.03 | 1.02 | 1.09 | 1.03 |  |  |  |  | 
NCI-H1793 | 1.02 | 0.852 | 0.505 | 0.797 | 0.582 | 0.306 | 0.355 | 0.307 | 0.312 | 0.296 |  |  |  |  |  | 0.468 | 0.404 | 0.966 | 0.446 | 0.509
COR-L23 | 1 | 1.04 | 0.745 | 0.822 | 0.864 | 0.674 | 0.8 | 0.514 | 0.8 | 0.777 | 0.874 | 1.01 | 0.947 | 1.22 | 0.956 |  |  |  |  | 
IA-LM | 0.426 | 0.83 | 0.709 | 0.541 | 0.404 | 0.275 | 0.344 | 0.358 | 0.445 | 0.296 | 0.987 | 0.847 | 0.956 | 0.88 | 0.889 |  |  |  |  | 
NCI-H520 | 0.98 | 0.935 | 0.856 | 0.894 | 0.648 | 0.394 | 0.308 | 0.283 | 0.294 | 0.309 | 0.464 | 0.552 | 0.367 | 0.634 | 0.278 |  |  |  |  | 
A549 | 0.53 | 0.544 | 0.416 | 0.589 | 0.446 | 0.412 | 0.516 | 0.409 | 0.468 | 0.371 |  |  |  |  |  |  |  |  |  | 
NCI-H2170 |  |  |  |  |  | 0.313 | 0.312 | 0.228 | 0.295 | 0.29 |  |  |  |  |  | 0.873 | 0.916 | 0.864 | 0.774 | 0.357
NCI-H2009 | 1.22 | 1.28 | 1.11 | 1.16 | 0.887 | 0.85 | 0.767 | 0.798 | 0.84 | 0.768 | 1.02 | 1.07 | 0.995 | 1.14 | 0.991 |  |  |  |  | 
NCI-H1563 | 1.16 | 1.29 | 1.07 | 1.15 | 0.832 | 0.656 | 0.663 | 0.583 | 0.658 | 0.678 | 0.932 | 0.858 | 0.696 | 0.864 | 0.681 |  |  |  |  | 
Calu-6 | 1.06 | 1 | 0.889 | 0.942 | 0.93 | 1.05 | 0.947 | 0.934 | 0.902 | 0.865 | 1.13 | 0.991 | 0.937 | 1.02 | 1.07 |  |  |  |  | 
NCI-H1650 |  |  |  |  |  | 0.668 | 0.608 | 0.553 | 0.645 | 0.593 | 0.208 | 0.19 | 0.239 | 0.208 | 0.202 |  |  |  |  | 
NCI-H358 | 0.805 | 0.794 | 0.638 | 0.64 | 0.637 | 0.359 | 0.355 | 0.281 | 0.342 | 0.355 |  |  |  |  |  | 0.55 | 0.321 | 0.539 | 0.338 | 0.266
SK-LU-1 | 1.17 | 1.15 | 0.916 | 1.02 | 0.973 | 0.553 | 0.668 | 0.532 | 0.574 | 0.552 | 1.06 | 1.14 | 0.961 | 0.95 | 1.04 |  |  |  |  | 
SK-MES-1 | 1.02 | 0.984 | 0.934 | 0.855 | 0.703 | 0.377 | 0.365 | 0.355 | 0.414 | 0.36 |  |  |  |  |  |  |  |  |  | 
NCI-H2023 | 0.662 | 0.556 | 0.515 | 0.547 | 0.273 | 0.221 | 0.279 | 0.153 | 0.241 | 0.266 | 1.11 | 1.09 | 0.681 | 1.03 | 0.871 |  |  |  |  | 
COR-L 105 | 1.05 | 0.83 | 0.793 | 0.806 | 0.595 | 0.555 | 0.418 | 0.399 | 0.463 | 0.31 | 0.906 | 0.92 | 0.53 | 1.02 | 0.713 |  |  |  |  | 
NCI-H2342 |  |  |  |  |  |  |  |  |  |  |  |  |  |  |  | 0.354 | 0.492 | 0.392 | 0.524 | 0.443
SW 1573 | 0.781 | 0.792 | 0.728 | 0.625 | 0.558 | 0.547 | 0.523 | 0.513 | 0.668 | 0.393 | 1.06 | 0.972 | 1.02 | 0.928 | 0.865 |  |  |  |  | 
